Measured values taken from patent US11708344B2, “Flavone derivatives for the treatment and prophylaxis of hepatitis B virus disease” (Hoffmann-La Roche Inc., priority 2018, dated 2023).

Key:
[1] = test system: HBeAg (surrogate marker for cccDNA) in HepDES19 cells; assay: Engineered HepDES19 primary screen assay (HBeAg ELISA); type: cell-based, HBV; conditions: Hepatitis B virus, HepDES19, 120 h, read-out: IC50 (HBeAg level, HepDES19 primary screen assay), HepDES19 cells, 5 days compound incubation, HBeAg ELISA
Outline: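 HepDES19 cells were induced by Tet withdrawal for 8 days, then treated with half-log compound dilutions (1% DMSO final) for 5 days at 37 °C. HBeAg was measured by ELISA as the cccDNA surrogate, viability by CCK-8, and IC50 from a 4-parameter logistic fit.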

[2] = Human microsome stability assay; type: in vitro ADME; conditions: human liver microsomes, 1 μM test compound, 0.5 mg/mL microsomal protein, 37° C., pH 7.4, 0-30 minutes
Outline: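 Compound (1 μM) incubated at 37 °C with human liver microsomes (0.5 mg/mL protein) in 100 mM potassium phosphate, pH 7.4, after 10 min preincubation; started with NADPH regenerating system. Sampled at 0–30 min, quenched with cold ACN; remaining parent quantified by LC-MS/MS, with no-NADPH controls.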

| SMILES | IC50 [1] | Clearance of Human microsome [2] |
| --- | --- | --- |
| COc1ccc2c(=O)cc(-c3ccc(C(F)(F)F)cc3OCCC(=O)O)oc2c1Cl [Example A032, 3-[2-(8-chloro-7-methoxy-4-oxo-chromen-2-yl)-5-(trifluoromethyl)phenoxy]propanoic acid] | 13 µM | 6.15 mL/min/kg |
| COc1cc(OC2CC(C(=O)NS(C)(=O)=O)C2)c(-c2cc(=O)c3cccc(Cl)c3o2)cc1OC (stereo not shown) [Example B057, 3-[2-(8-chloro-4-oxo-chromen-2-yl)-4,5-dimethoxy-phenoxy]-N-methylsulfonyl-cyclobutanecarboxamide] | 1.08 µM | 6.15 mL/min/kg |
| CS(=O)(=O)NC(=O)[C@H]1C[C@H](Oc2cc(OC(F)(F)F)ccc2-c2cc(=O)c3cccc(Cl)c3o2)C1 [Example B047-B, Trans-3-[2-(8-chloro-4-oxo-chromen-2-yl)-5-(trifluoromethoxy)phenoxy]-N-methylsulfonyl-cyclobutanecarboxamide] | 3.76 µM | 6.15 mL/min/kg |
| COc1cc(OCC2(CC(=O)O)CC2)c(-c2cc(=O)c3cccc(Cl)c3o2)cc1OC [Example A067, 2-[1-[[2-(8-chloro-4-oxo-chromen-2-yl)-4,5-dimethoxy-phenoxy]methyl]cyclopropyl]acetic acid] | 1.68 µM | 6.15 mL/min/kg |
| CS(=O)(=O)NC(=O)[C@H]1C[C@H](Oc2cc(C(F)(F)F)ccc2-c2cc(=O)c3cccc(Cl)c3o2)C1 [Example B048-B, Trans-3-[2-(8-chloro-4-oxo-chromen-2-yl)-5-(trifluoromethyl)phenoxy]-N-methylsulfonyl-cyclobutanecarboxamide] | 3.08 µM | 6.15 mL/min/kg |
| COc1cc(OCCO[C@H]2C[C@@H](C(=O)O)C2)c(-c2cc(=O)c3c(O)ccc(Cl)c3o2)cc1OC [Example C098, cis-3-[2-[2-(8-chloro-5-hydroxy-4-oxo-chromen-2-yl)-4,5-dimethoxy-phenoxy]ethoxy]cyclobutanecarboxylic acid] | 8.56 µM | 6.15 mL/min/kg |
| O=C(O)CCOc1cc(C(F)(F)F)ccc1-c1cc(=O)c2cc(F)cc(Cl)c2o1 [Example A003, 3-[2-(8-chloro-6-fluoro-4-oxo-chromen-2-yl)-5-(trifluoromethyl)phenoxy]propanoic acid] | 0.362 µM | 6.15 mL/min/kg |
| Cc1ccc(-c2cc(=O)c3cccc(Cl)c3o2)c(OCCO[C@H]2C[C@H](C(=O)O)C2)c1 [Example C038-B, Trans-3-[2-[2-(8-chloro-4-oxo-chromen-2-yl)-5-methyl-phenoxy]ethoxy]cyclobutanecarboxylic acid] | 1.53 µM | 6.15 mL/min/kg |
| Cc1cc(-c2cc(=O)c3cccc(Cl)c3o2)c(OCC(=O)N2CCC[C@@H]2C(=O)O)cc1Br [Example A079, (2R)-1-[2-[5-bromo-2-(8-chloro-4-oxo-chromen-2-yl)-4-methyl-phenoxy]acetyl]pyrrolidine-2-carboxylic acid] | 19 µM | 6.6 mL/min/kg |
| Cc1ccc(-c2cc(=O)c3cccc(Cl)c3o2)c(OCC(=O)N2CCC[C@@H]2C(=O)O)c1 [Example A077, (2R)-1-[2-[2-(8-chloro-4-oxo-chromen-2-yl)-5-methyl-phenoxy]acetyl]pyrrolidine-2-carboxylic acid] | 9 µM | 8.57 mL/min/kg |
| COc1ccc(-c2cc(=O)c3cccc(Cl)c3o2)c(OCCO[C@H]2C[C@H](C(=O)O)C2)c1 [Example C039-B, Trans-3-[2-[2-(8-chloro-4-oxo-chromen-2-yl)-5-methoxy-phenoxy]ethoxy]cyclobutanecarboxylic acid] | 17.5 µM | 6.15 mL/min/kg |
| COc1cc(OCCC(=O)NS(=O)(=O)C2CC2)c(-c2cc(=O)c3cccc(Cl)c3o2)cc1OC [Example A085, 3-[2-(8-chloro-4-oxo-chromen-2-yl)-4,5-dimethoxy-phenoxy]-N-cyclopropylsulfonyl-propanamide] | 4.92 µM | 6.15 mL/min/kg |
| O=C(O)C1CC(OCCOc2ccccc2-c2cc(=O)c3cccc(Br)c3o2)C1 (stereo in doubt) [Example C046-A, Cis-3-[2-[2-(8-bromo-4-oxo-chromen-2-yl)phenoxy]ethoxy]cyclobutanecarboxylic acid] | 0.192 µM | 6.15 mL/min/kg |
| COc1ccc(-c2cc(=O)c3cccc(Cl)c3o2)c(OCCO[C@H]2C[C@@H](C(=O)O)C2)c1 [Example C039-A, Cis-3-[2-[2-(8-chloro-4-oxo-chromen-2-yl)-5-methoxy-phenoxy]ethoxy]cyclobutanecarboxylic acid] | 8.91 µM | 6.15 mL/min/kg |
| CC(C)(CCCOc1cc(OC(F)(F)F)ccc1-c1cc(=O)c2cccc(Cl)c2o1)C(=O)O [Example A071, 5-[2-(8-chloro-4-oxo-chromen-2-yl)-5-(trifluoromethoxy)phenoxy]-2,2-dimethyl-pentanoic acid] | 6.46 µM | 7.4 mL/min/kg |
| Cc1ccc(-c2cc(=O)c3cccc(Cl)c3o2)c(OCC(C)(C)C(=O)O)c1 [Example A063, 3-[2-(8-chloro-4-oxo-chromen-2-yl)-5-methyl-phenoxy]-2,2-dimethyl-propanoic acid] | 1.35 µM | 6.15 mL/min/kg |
| CN1C(=O)C(C)(C)c2cc(OCCO[C@H]3C[C@@H](C(=O)O)C3)c(-c3cc(=O)c4cccc(Cl)c4o3)cc21 [Example C093, Cis-3-[2-[6-(8-chloro-4-oxo-chromen-2-yl)-1,3,3-trimethyl-2-oxo-indolin-5-yl]oxyethoxy]cyclobutanecarboxylic acid] | 7.79 µM | 6.15 mL/min/kg |
| COc1cc(OCCCOCC(=O)O)c(-c2cc(=O)c3cccc(Cl)c3o2)cc1OC [Example C012, 2-[3-[2-(8-chloro-4-oxo-chromen-2-yl)-4,5-dimethoxy-phenoxy]propoxy]acetic acid] | 5.26 µM | 6.15 mL/min/kg |
| O=C(O)COCCOc1cc(OC(F)(F)F)ccc1-c1cc(=O)c2cccc(Cl)c2o1 [Example C023, 2-[2-[2-(8-chloro-4-oxo-chromen-2-yl)-5-(trifluoromethoxy)phenoxy]ethoxy]acetic acid] | 3.99 µM | 6.15 mL/min/kg |
| O=c1cc(-c2cc3c(cc2O[C@H]2C[C@H](C(=O)O)C2)CCO3)oc2c(Cl)cccc12 [Example B023, Trans-3-[[6-(8-chloro-4-oxo-chromen-2-yl)-2,3-dihydrobenzofuran-5-yl]oxy]cyclobutanecarboxylic acid] | 3.39 µM | 6.15 mL/min/kg |
| O=c1cc(-c2cccc(Br)c2OCCO[C@H]2C[C@@H](C(=O)O)C2)oc2c(Cl)cc(F)cc12 [Example C070, Cis-3-[2-[2-bromo-6-(8-chloro-6-fluoro-4-oxo-chromen-2-yl)phenoxy]ethoxy]cyclobutanecarboxylic acid] | 13.1 µM | 9.42 mL/min/kg |
| O=c1cc(-c2cc3c(cc2OCCO[C@H]2C[C@@H](C(=O)O)C2)OC(F)(F)O3)oc2c(Cl)cccc12 [Example C102, Cis-3-[2-[[6-(8-chloro-4-oxo-chromen-2-yl)-2,2-difluoro-1,3-benzodioxol-5-yl]oxy]ethoxy]cyclobutanecarboxylic acid] | 7 µM | 7.11 mL/min/kg |
| COc1cc(OCCCC(=O)O)c(-c2cc(=O)c3cccc(Cl)c3o2)cc1C [Example A060, 4-[2-(8-chloro-4-oxo-chromen-2-yl)-5-methoxy-4-methyl-phenoxy]butanoic acid] | 5.36 µM | 6.15 mL/min/kg |
| CCOc1ccc(OCCO[C@H]2C[C@@H](C(=O)O)C2)c(-c2cc(=O)c3cccc(Cl)c3o2)c1 [Example C051-A, Cis-3-[2-[2-(8-chloro-4-oxo-chromen-2-yl)-4-ethoxy-phenoxy]ethoxy]cyclobutanecarboxylic acid] | 4.14 µM | 6.15 mL/min/kg |
| COc1ccc(OC[C@H]2C[C@H](C(=O)O)C2)c(-c2cc(=O)c3cccc(Cl)c3o2)c1 [Example B027-B] | 11 µM | 6.15 mL/min/kg |
| O=C(O)C1CCC(OCCCOc2cc(C(F)(F)F)ccc2-c2cc(=O)c3cccc(Cl)c3o2)C1 (stereo not shown) [Example C104, 3-[3-[2-(8-chloro-4-oxo-chromen-2-yl)-5-(trifluoromethyl)phenoxy]propoxy]cyclopentanecarboxylic acid] | 4.46 µM | 6.15 mL/min/kg |
| CC(C)(COc1cc(C(F)(F)F)ccc1-c1cc(=O)c2cccc(Cl)c2o1)C(=O)O [Example A062, 3-[2-(8-chloro-4-oxo-chromen-2-yl)-5-(trifluoromethyl)phenoxy]-2,2-dimethyl-propanoic acid] | 13 µM | 9.88 mL/min/kg |
| O=C(COc1cc(C(F)(F)F)ccc1-c1cc(=O)c2cccc(Cl)c2o1)NC1CC(C(=O)O)C1 (stereo not shown) [Example A074, 3-[[2-[2-(8-chloro-4-oxo-chromen-2-yl)-5-(trifluoromethyl)phenoxy]acetyl]amino]cyclobutanecarboxylic acid] | 2.38 µM | 6.15 mL/min/kg |
| Cc1cc(Br)c(OC2CC(C(=O)O)C2)c(-c2cc(=O)c3cccc(Cl)c3o2)c1 (stereo not shown) [Example B009, 3-[2-bromo-6-(8-chloro-4-oxo-chromen-2-yl)-4-methyl-phenoxy]cyclobutanecarboxylic acid] | 5.98 µM | 6.19 mL/min/kg |
